PubChem BioAssay AID256 (DTP/NCI, 2004)
Where “and” joins values, the source holds several entries; their conditions need not be identical. Equal entries are not always repeated. Toxic doses and inconclusive results are not listed.

Tested on: CD2F1 mice, L1210 leukemia ip, survival T/C
Test: NCI In Vivo Anticancer Drug Screen. Data for tumor model L1210 Leukemia (intraperitoneal) in CD2F1 (CDF1) mice
Conditions: higher = longer survival
How it was run: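 Tumor-bearing mice (transplanted tumor) were split into treated and vehicle control groups, and the measured endpoint of each treated group was divided by that of its vehicle controls.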

Which T/C (endpoint: mean survival time, dose: 0.13 mg/kg/injection, schedule: Q01DX009 (ip), vehicle: saline) does the source give for CN(Cc1cnc2nc(N)nc(N)c2n1)c1ccc(C(=O)N[C@@H](CCC(=O)O)C(=O)O)cc1 here?
The T/C was 119 % of control.

And the T/C (endpoint: mean survival time, dose: 0.19 mg/kg/injection, schedule: Q01DX009 (ip), vehicle: alkali diluted with saline)?
The T/C was 115 % of control.

And the T/C (endpoint: mean survival time, dose: 0.25 mg/kg/injection, schedule: Q01DX009 (ip), vehicle: sodium bicarbonate)?
Its T/C is 115 % of control.

What about the T/C (endpoint: mean survival time, dose: 0.25 mg/kg/injection, schedule: Q03HX008 (ip), vehicle: saline) of the same compound?
Its T/C is 122 % of control.

And the T/C (endpoint: mean survival time, dose: 0.38 mg/kg/injection, schedule: Q01DX009 (ip), vehicle: alkali diluted with saline)?
The T/C was 120 % of control.

And the T/C (endpoint: mean survival time, dose: 0.38 mg/kg/injection, schedule: Q01DX009 (ip), vehicle: other)?
The T/C was 154 % of control.

And the T/C (endpoint: mean survival time, dose: 0.44 mg/kg/injection, schedule: Q01DX009 (ip), vehicle: sodium bicarbonate)?
The T/C was 156 % of control.

What about the T/C (endpoint: mean survival time, dose: 0.47 mg/kg/injection, schedule: Q01DX009 (ip), vehicle: sodium bicarbonate) of the same compound?
The T/C was 160 % of control.

And the T/C (endpoint: mean survival time, dose: 0.5 mg/kg/injection, schedule: Q01DX005 (ip), vehicle: sodium bicarbonate)?
The T/C was 115 % of control and 122 % of control.

What about the T/C (endpoint: mean survival time, dose: 0.5 mg/kg/injection, schedule: Q01DX007 (ip), vehicle: other) of the same compound?
The T/C was 117 % of control.

What about the T/C (endpoint: mean survival time, dose: 0.5 mg/kg/injection, schedule: Q01DX009 (ip), vehicle: saline) of the same compound?
The T/C was 159 % of control.

And the T/C (endpoint: mean survival time, dose: 0.75 mg/kg/injection, schedule: Q01DX009 (ip), vehicle: alkali diluted with saline)?
Its T/C is 152 % of control and 163 % of control.

And the T/C (endpoint: mean survival time, dose: 0.75 mg/kg/injection, schedule: Q01DX009 (ip), vehicle: other)?
Its T/C is 154 % of control.

What about the T/C (endpoint: mean survival time, dose: 0.78 mg/kg/injection, schedule: Q01DX009 (ip), vehicle: sodium bicarbonate) of the same compound?
Its T/C is 166 % of control.

What about the T/C (endpoint: mean survival time, dose: 1.0 mg/kg/injection, schedule: Q01DX005 (ip), vehicle: sodium bicarbonate) of the same compound?
Its T/C is 113 % of control.

What about the T/C (endpoint: mean survival time, dose: 1.0 mg/kg/injection, schedule: Q01DX009 (ip), vehicle: saline) of the same compound?
Its T/C is 171 % of control and 183 % of control.

And the T/C (endpoint: mean survival time, dose: 1.3 mg/kg/injection, schedule: Q01DX009 (ip), vehicle: sodium bicarbonate)?
Its T/C is 181 % of control.

And the T/C (endpoint: mean survival time, dose: 1.5 mg/kg/injection, schedule: Q01DX009 (ip), vehicle: alkali diluted with saline)?
Its T/C is 177 % of control and 178 % of control.

What about the T/C (endpoint: mean survival time, dose: 1.5 mg/kg/injection, schedule: Q01DX009 (ip), vehicle: other) of the same compound?
Its T/C is 150 % of control and 164 % of control.

What about the T/C (endpoint: mean survival time, dose: 2.0 mg/kg/injection, schedule: Q01DX007 (ip), vehicle: other) of the same compound?
Its T/C is 164 % of control.

And the T/C (endpoint: mean survival time, dose: 2.0 mg/kg/injection, schedule: Q01DX009 (ip), vehicle: saline)?
The T/C was 161 % of control.

And the T/C (endpoint: mean survival time, dose: 2.0 mg/kg/injection, schedule: Q02DX005 (ip), vehicle: sodium bicarbonate)?
The T/C was 170 % of control.

What about the T/C (endpoint: mean survival time, dose: 2.0 mg/kg/injection, schedule: Q03DX003 (ip), vehicle: sodium bicarbonate) of the same compound?
The T/C was 158 % of control.

What about the T/C (endpoint: mean survival time, dose: 2.0 mg/kg/injection, schedule: Q04DX003 (ip), vehicle: sodium bicarbonate) of the same compound?
Its T/C is 160 % of control.

And the T/C (endpoint: mean survival time, dose: 2.16 mg/kg/injection, schedule: Q01DX009 (ip), vehicle: sodium bicarbonate)?
The T/C was 179 % of control.

What about the T/C (endpoint: mean survival time, dose: 2.3 mg/kg/injection, schedule: Q01DX009 (ip), vehicle: sodium bicarbonate) of the same compound?
The T/C was 164 % of control.

And the T/C (endpoint: mean survival time, dose: 2.3 mg/kg/injection, schedule: Q04DX003 (ip), vehicle: saline)?
Its T/C is 114 % of control.

And the T/C (endpoint: mean survival time, dose: 2.5 mg/kg/injection, schedule: Q04DX003 (ip), vehicle: sodium bicarbonate)?
The T/C was 116 % of control.

What about the T/C (endpoint: mean survival time, dose: 4.0 mg/kg/injection, schedule: Q01DX005 (ip), vehicle: sodium bicarbonate) of the same compound?
The T/C was 160 % of control.

And the T/C (endpoint: mean survival time, dose: 4.0 mg/kg/injection, schedule: Q04DX003 (ip), vehicle: saline)?
Its T/C is 166 % of control.

What about the T/C (endpoint: mean survival time, dose: 4.0 mg/kg/injection, schedule: Q04DX003 (ip), vehicle: sodium bicarbonate) of the same compound?
Its T/C is 169 % of control.

And the T/C (endpoint: mean survival time, dose: 4.6 mg/kg/injection, schedule: Q04DX003 (ip), vehicle: saline)?
The T/C was 164 % of control.

And the T/C (endpoint: mean survival time, dose: 5.0 mg/kg/injection, schedule: Q04DX003 (ip), vehicle: alkali diluted with saline)?
The T/C was 156 % of control.

What about the T/C (endpoint: mean survival time, dose: 5.0 mg/kg/injection, schedule: Q04DX003 (ip), vehicle: sodium bicarbonate) of the same compound?
Its T/C is 159 % of control.

And the T/C (endpoint: mean survival time, dose: 5.4 mg/kg/injection, schedule: Q04DX003 (ip), vehicle: sodium bicarbonate)?
The T/C was 165 % of control.

And the T/C (endpoint: mean survival time, dose: 8.0 mg/kg/injection, schedule: Q01DX001 (ip), vehicle: saline)?
The T/C was 116 % of control.

What about the T/C (endpoint: mean survival time, dose: 8.0 mg/kg/injection, schedule: Q03DX003 (ip), vehicle: sodium bicarbonate) of the same compound?
Its T/C is 181 % of control.

What about the T/C (endpoint: mean survival time, dose: 9.0 mg/kg/injection, schedule: Q04DX003 (ip), vehicle: sodium bicarbonate) of the same compound?
Its T/C is 176 % of control.

And the T/C (endpoint: mean survival time, dose: 9.2 mg/kg/injection, schedule: Q04DX003 (ip), vehicle: saline)?
Its T/C is 175 % of control.

And the T/C (endpoint: mean survival time, dose: 10.0 mg/kg/injection, schedule: Q01DX005 (ip), vehicle: sodium bicarbonate)?
The T/C was 164 % of control.

And the T/C (endpoint: mean survival time, dose: 10.0 mg/kg/injection, schedule: Q04DX003 (ip), vehicle: alkali diluted with saline)?
The T/C was 154 % of control and 164 % of control.

And the T/C (endpoint: mean survival time, dose: 10.0 mg/kg/injection, schedule: Q04DX004 (ip), vehicle: sodium bicarbonate)?
Its T/C is 165 % of control and 183 % of control.

What about the T/C (endpoint: mean survival time, dose: 15.0 mg/kg/injection, schedule: Q04DX004 (ip), vehicle: sodium bicarbonate) of the same compound?
The T/C was 168 % of control and 170 % of control.

And the T/C (endpoint: mean survival time, dose: 16.0 mg/kg/injection, schedule: Q04DX003 (ip), vehicle: saline)?
The T/C was 150 % of control.

What about the T/C (endpoint: mean survival time, dose: 25.0 mg/kg/injection, schedule: Q04DX003 (ip), vehicle: sodium bicarbonate) of the same compound?
Its T/C is 174 % of control.

What about the T/C (endpoint: mean survival time, dose: 25.0 mg/kg/injection, schedule: Q04DX004 (ip), vehicle: sodium bicarbonate) of the same compound?
The T/C was 175 % of control.

And the T/C (endpoint: mean survival time, dose: 32.0 mg/kg/injection, schedule: Q04DX003 (ip), vehicle: saline)?
The T/C was 174 % of control.

And the T/C (endpoint: mean survival time, dose: 35.0 mg/kg/injection, schedule: Q04DX003 (ip), vehicle: sodium bicarbonate)?
The T/C was 175 % of control.

What about the T/C (endpoint: mean survival time, dose: 36.8 mg/kg/injection, schedule: Q04DX003 (ip), vehicle: saline) of the same compound?
Its T/C is 159 % of control.

And the T/C (endpoint: mean survival time, dose: 41.7 mg/kg/injection, schedule: Q04DX003 (ip), vehicle: sodium bicarbonate)?
The T/C was 116 % of control.

And the T/C (endpoint: mean survival time, dose: 64.0 mg/kg/injection, schedule: Q04DX003 (ip), vehicle: saline)?
The T/C was 120 % of control.

What about the T/C (endpoint: mean survival time, dose: 73.5 mg/kg/injection, schedule: Q04DX003 (ip), vehicle: saline) of the same compound?
The T/C was 124 % of control.

And the T/C (endpoint: mean survival time, dose: 128.0 mg/kg/injection, schedule: Q04DX003 (ip), vehicle: saline)?
The T/C was 120 % of control.

And the T/C (endpoint: median survival time, dose: 0.5 mg/kg/injection, schedule: Q01DX005 (ip), vehicle: sodium bicarbonate)?
The T/C was 113 % of control.

And the T/C (endpoint: median survival time, dose: 0.52 mg/kg/injection, schedule: Q01DX009 (ip), vehicle: sodium bicarbonate)?
The T/C was 152 % of control.

What about the T/C (endpoint: median survival time, dose: 0.6 mg/kg/injection, schedule: Q06HX024 (ip), vehicle: saline) of the same compound?
The T/C was 116 % of control.

And the T/C (endpoint: median survival time, dose: 0.86 mg/kg/injection, schedule: Q01DX009 (ip), vehicle: sodium bicarbonate)?
Its T/C is 165 % of control.

And the T/C (endpoint: median survival time, dose: 1.0 mg/kg/injection, schedule: Q01DX005 (ip), vehicle: sodium bicarbonate)?
Its T/C is 124 % of control.

What about the T/C (endpoint: median survival time, dose: 1.25 mg/kg/injection, schedule: Q01DX009 (ip), vehicle: sodium bicarbonate) of the same compound?
The T/C was 173 % of control and 178 % of control.

What about the T/C (endpoint: median survival time, dose: 1.56 mg/kg/injection, schedule: Q01DX009 (ip), vehicle: sodium bicarbonate) of the same compound?
Its T/C is 171 % of control.

What about the T/C (endpoint: median survival time, dose: 2.5 mg/kg/injection, schedule: Q01DX009 (ip), vehicle: sodium bicarbonate) of the same compound?
The T/C was 182 % of control.

What about the T/C (endpoint: median survival time, dose: 3.0 mg/kg/injection, schedule: Q01DX005 (ip), vehicle: sodium bicarbonate) of the same compound?
Its T/C is 160 % of control and 175 % of control.

And the T/C (endpoint: median survival time, dose: 3.0 mg/kg/injection, schedule: Q01DX009 (ip), vehicle: sodium bicarbonate)?
The T/C was 156 % of control.

And the T/C (endpoint: median survival time, dose: 4.0 mg/kg/injection, schedule: Q01DX005 (ip), vehicle: sodium bicarbonate)?
The T/C was 168 % of control and 181 % of control.

And the T/C (endpoint: median survival time, dose: 4.5 mg/kg/injection, schedule: Q01DX005 (ip), vehicle: sodium bicarbonate)?
Its T/C is 169 % of control (2×) and 183 % of control.

What about the T/C (endpoint: median survival time, dose: 5.4 mg/kg/injection, schedule: Q04DX003 (ip), vehicle: sodium bicarbonate) of the same compound?
The T/C was 163 % of control and 168 % of control.

What about the T/C (endpoint: median survival time, dose: 6.0 mg/kg/injection, schedule: Q01DX005 (ip), vehicle: sodium bicarbonate) of the same compound?
Its T/C is 171 % of control and 179 % of control.

What about the T/C (endpoint: median survival time, dose: 9.0 mg/kg/injection, schedule: Q04DX003 (ip), vehicle: sodium bicarbonate) of the same compound?
The T/C was 175 % of control.

What about the T/C (endpoint: median survival time, dose: 12.5 mg/kg/injection, schedule: Q01DX001 (ip), vehicle: sodium bicarbonate) of the same compound?
Its T/C is 116 % of control.

What about the T/C (endpoint: median survival time, dose: 15.0 mg/kg/injection, schedule: Q04DX003 (ip), vehicle: sodium bicarbonate) of the same compound?
Its T/C is 175 % of control.

What about the T/C (endpoint: median survival time, dose: 25.0 mg/kg/injection, schedule: Q04DX003 (ip), vehicle: sodium bicarbonate) of the same compound?
The T/C was 173 % of control.

What about the T/C (endpoint: median survival time, dose: 72.0 mg/kg/injection, schedule: Q01DX001 (ip), vehicle: sodium bicarbonate) of the same compound?
The T/C was 113 % of control and 122 % of control.

And the T/C (endpoint: median survival time, dose: 400.0 mg/kg/injection, schedule: Q01DX001 (ip), vehicle: sodium bicarbonate)?
Its T/C is 177 % of control.
